Test system: human myeloma cell line MM.1S
Test: SILAC acetylated-lysine peptide profiling, HDAC inhibitor vs DMSO (light/heavy ratio)
Assay type: cell-based
Source text: An embodiment of the invention comprises utilizing the SILAC method in order to quantitate changes in protein expression between two or more populations of cells. The SILAC method is a technique based on mass spectrometry that detects differences in protein abundance among samples using non-radioactive isotopic labeling. The SILAC method is known in the art, and described in detail in Ong et al., “Stable Isotope Labeling by Amino Acids in Cell Culture, SILAC, as a Simple and Accurate Approach to Expression Proteomics”, Molecular & Cellular Proteomics, vol. 1, pp. 376-386 (2002), which is incorporated herein by reference in its entirety.
Briefly, the SILAC method involves growing two populations of cells in cell culture. The first population of cells is grown in growth media containing normal amino acids (“normal media”). The second population of cells is grown in media lacking a standard essential amino acid (such as lysine), but is then supplemented with a non-radioactive, isotopically labeled form of that essential amino acid (such as lysine labeled with ^13C atoms, rather than normal ^12C atoms), which is called “heavy media”. When the two populations of cells are each growing in the medium, they incorporate the amino acids into all of their proteins. The growth of cells maintained in the heavy media is no different from that in normal media. All peptides containing the heavy amino acids are heavier than their normal counterparts. The cells from each of the two populations of cells are lysed. The lysates from each of the two cell populations are then combined. The combined cell lysates are then analyzed by mass spectrometry. Pairs of chemically identical peptides of different stable isotope composition can be differentiated in a mass spectrometer due to their difference in mass. The ratio of peak intensities in the mass spectrum for such peptide pairs reflects the abundance ratio for the two proteins.
This example describes SILAC studies that were performed to compare the effects of three different HDAC inhibitors (Compound A, Compound B, and tubastatin A) to a control on a human multiple myeloma cell line. The HDAC inhibitors were also compared amongst themselves to determine differences in their effects.
A human myeloma cell line MM.1S was grown using either ^12C (light) or ^13C (heavy) lysine containing culture medium. The “heavy” cells were treated with DMSO as the control, and the “light” cells were treated with a single HDAC inhibitor at 37° C. for 6 hours. The heavy and light cells were lysed, and the lysates were mixed in 1:1 ratio and digested with the protease trypsin. The acetylated lysine containing peptides (due to the action of the HDAC inhibitor) in the digested peptide pool were captured by a non-specific anti-acetylated lysine antibody cocktail (the antibodies identify both light and heavy acetylated peptides), and subjected to mass spectrometry analysis in order to identify thousands of individual peptides.
Thousands of peptides were identified in pairs (^12C and ^13C) due to their known mass differences. The amino acid sequence and quantitative ratio (Light/Heavy) of a given peptide in two differentially treated cell lysates were then determined and annotated with their possible protein (gene) sources.
As stated above, three HDAC inhibitors (Compound A, Compound B, and Tubastatin A) were used. Thus, the SILAC method was performed three times, with a different HDAC inhibitor compared to a control each time. Accordingly, there are three pairs of quantitative data in the table below, i.e., Compound A:DMSO, Compound B:DMSO, and Tubastatin A:DMSO. A cut-off of 1.30 fold of change (increase or decrease) was then used to determine “changed” or “+” in the table, and any peptides with a fold of change less than 1.3 fold were determined to be “unchanged” or “0” in the table. Those peptides that were not identified were marked as “NA” in the table. […]

For `O=C(NO)c1cnc(NC2(c3cccc(F)c3)CCCCC2)nc1` [Compound B, 2-((1-(3-fluorophenyl)cyclohexyl)amino)-N-hydroxypyrimidine-5-carboxamide], the “light to heavy ratio (L/H ratio) of acetylated peptide, log 2 scale” value (NK(ac)[…] (SEQ ID NO: 237), Vesicle-associated membrane protein 8 [47], VAMP8) was 0.00, the “light to heavy ratio (L/H ratio) of acetylated peptide, log 2 scale” value (NLDK(ac)[…] (SEQ ID NO: 159), Aspartate aminotransferase mitochondrial [94], GOT2) was 0.00 and the “L/H ratio of acetylated peptide” value (NLK(ac)NEITK (SEQ ID NO: 380), Isoform 1 of Coatomer subunit alpha [441], COPA) was 0.40 log 2. The “L/H ratio of acetylated peptide” value (NLPFSVENK(ac)WSLLAK (SEQ ID NO: 382), Cytochrome c oxidase subunit 7C mitochondrial [34], COX7C) was −0.87 log 2, the “L/H ratio of acetylated peptide ADKDYHFK(ac)[…] (SEQ ID NO: 61)” value (NPM1 [32], log 2 scale, drug vs DMSO) was 0.00 and the “L/H ratio of acetylated peptide GVTQFGNK(ac)[…] (SEQ ID NO: 18)” value (NUDT21 [23], log 2 scale, drug vs DMSO) was 0.50. The “L/H ratio of acetylated peptide” value (NVQQTVSAK(ac)GPPEK(ac)R (SEQ ID NO: 416), Mediator of RNA polymerase II transcription subunit 6 [243:248], MED6) was 0.49 log 2, the “L/H ratio of acetylated peptide” value (NVYK(ac)FELDTSER (SEQ ID NO: 444), Dolichyl-diphosphooligosaccharide--protein glycosyltransferase subunit 2 [460], RPN2) was 0.54 log 2 and the “light to heavy ratio (L/H ratio) of acetylated peptide FCLSK(ac)PGVYK (SEQ ID NO: 345)” value (Nodal modulator 1 [630], NOMO3, NOMO1, drug:DMSO) was 0.59 log 2. The “light to heavy ratio (L/H ratio) of acetylated peptide […](ac)R (SEQ ID NO: 532)” value (Nucleosome assembly protein 1-like 1 [116], gene NAP1L1, inhibitor:DMSO) was 0.00 log 2, the “L/H ratio of acetylated peptide PSHLTNK(ac)FEDK (SEQ ID NO: 65)” value (PDIA3 [214], log 2 scale, drug vs DMSO) was 0.00 and the “L/H ratio of acetylated peptide GEK(ac)FVMQEEFSR (SEQ ID NO: 64)” value (PDIA3 [335], log 2 scale, drug vs DMSO) was 0.00. For the same compound, the “L/H ratio of acetylated peptide SLLGK(ac)DVLFLK (SEQ ID NO: 67)” value (PGK1 [91], log 2 scale, drug vs DMSO) was 0.00, the “L/H ratio of acetylated peptide SIYGEK(ac)FEDENFILK (SEQ ID NO: 68)” value (PPIA [82], log 2 scale, drug vs DMSO) was 0.00 and the “L/H ratio of acetylated peptide VIFGLFGK(ac)TVPK (SEQ ID NO: 70)” value (PPIB [67], log 2 scale, drug vs DMSO) was 0.00. The “L/H ratio of acetylated peptide TVPK(ac)[…] (SEQ ID NO: 69)” value (PPIB [71], log 2 scale, drug vs DMSO) was 0.00, the “L/H ratio of acetylated peptide VIK(ac)[…] (SEQ ID NO: 71)” value (PPIB [98], log 2 scale, drug vs DMSO) was 0.00 and the “L/H ratio of acetylated peptide IYGFYDECK(ac)R (SEQ ID NO: 72)” value (PPP1CC [141], log 2 scale, drug vs DMSO) was 0.00. For the same compound, the “light to heavy ratio (L/H ratio) of acetylated peptide TAWLDGK(ac)HVVFGK (SEQ ID NO: 592)” value (Peptidyl-prolyl cis-trans isomerase B [165], gene PPIB, inhibitor:DMSO) was 0.00 log 2, the “light to heavy ratio (L/H ratio) of acetylated peptide FPDENFK(ac)LK (SEQ ID NO: 347)” value (Peptidyl-prolyl cis-trans isomerase C [123], PPIC, drug:DMSO) was −1.00 log 2 and the “light to heavy ratio (L/H ratio) of acetylated peptide HVVFGK(ac)VK (SEQ ID NO: 576)” value (Peptidylprolyl isomerase A (Cyclophilin A) (PPIA) pseudogene [141], gene PPIAP26, inhibitor:DMSO) was 0.00 log 2. The “light to heavy ratio (L/H ratio) of acetylated peptide LAK(ac)YFFNK (SEQ ID NO: 604)” value (Periodic tryptophan protein 2 homolog [279], gene PWP2, inhibitor:DMSO) was 0.00 log 2, the “light to heavy ratio (L/H ratio) of acetylated peptide […](ac)DELKK (SEQ ID NO: 346)” value (Poly [ADP-ribose] polymerase 1 [249], PARP1, drug:DMSO) was 0.83 log 2 and the “light to heavy ratio (L/H ratio) of acetylated peptide FVVEK(ac)AEQQK (SEQ ID NO: 263)” value (Prohibitin [202], PHB, drug:DMSO) was 0.00 log 2. The “light to heavy ratio (L/H ratio) of acetylated peptide FEYK(ac)YSFK (SEQ ID NO: 340)” value (Protein ERGIC-53 [49], LMAN1, drug:DMSO) was −0.52 log 2, the “light to heavy ratio (L/H ratio) of acetylated peptide HFAFK(ac)[…] (SEQ ID NO: 554)” value (Protein FAM3C [72], gene FAM3C, inhibitor:DMSO) was 0.00 log 2 and the “light to heavy ratio (L/H ratio) of acetylated peptide GYPTIK(ac)FFR (SEQ ID NO: 541)” value (Protein disulfide-isomerase [103], gene P4HB, inhibitor:DMSO) was 0.00 log 2. The “light to heavy ratio (L/H ratio) of acetylated peptide THILLFLPK(ac)SVSDYDGK (SEQ ID NO: 297)” value (Protein disulfide-isomerase [263], P4HB, drug:DMSO) was 0.00 log 2, the “light to heavy ratio (L/H ratio) of acetylated peptide VLVGK(ac)[…] (SEQ ID NO: 303)” value (Protein disulfide-isomerase [375], P4HB, drug:DMSO) was 0.00 log 2 and the “light to heavy ratio (L/H ratio) of acetylated peptide […](ac)K (SEQ ID NO: 286)” value (Protein disulfide-isomerase [385], P4HB, drug:DMSO) was 0.00 log 2. For the same compound, the “light to heavy ratio (L/H ratio), log 2 scale, acetylated peptide VYK(ac)EMYK (SEQ ID NO: 777)” value (Putative annexin A2-like protein [148], gene ANXA2P2, drug:DMSO) was 0.00 and the “light to heavy ratio (L/H ratio), log 2 scale, acetylated peptide SVPHLQK(ac)VFDR (SEQ ID NO: 776)” value (Putative annexin A2-like protein [227], gene ANXA2P2, drug:DMSO) was 0.00.

Reference: patent US20140357512A1, “HISTONE DEACETYLASE (HDAC) BIOMARKERS IN MULTIPLE MYELOMA” (priority 2013, published 2014)
